Experiments:
[1] = biological target: HPV16 E749-57 peptide presented by H-2D^b (human papillomavirus type 16; mouse (C57BL/6)) (UniProt P01899)
[2] = biological target: HPV16 E749-57 peptide presented by H-2D^b (human papillomavirus type 16; mouse (C57BL/6)) (UniProt P01899); remark: listed apart in the source
[3] = system: E749-57-specific CD8 T cells; test: ex vivo IFN-γ ELISPOT after sc or i.n. immunization with E71-98 + adjuvants; format: in vivo, C57BL/6 mice; conditions: single 50 μg sc or i.n. dose, no adjuvant; 7 days after immunization
[4] = system: E749-57-specific CD8 T cells; test: ex vivo IFN-γ ELISPOT after E7 vaccination followed by ivag immunostimulant; format: in vivo, C57BL/6 mice; conditions: sc E71-98+CpG and HLT day 1; ivag immunostimulant day 6; analysis day 9
E7-specific CD8 cells = conditions: single dose HSp E7+poly IC followed by three consecutive daily doses of Poly IC alone; cited from earlier work

With “E7-specific CD8 T cells from C57BL/6 mice vaccinated with E71-98 + adjuvants (PBMC, spleen, lymph no (cells without a defined receptor)” the ex vivo IFN-γ ELISPOT (E7-specific IFN-γ secreting cells/10^5 cells) [1] was 347 and the in vivo cytotoxicity assay (specific lysis of CFSE-labeled peptide-pulsed splenocytes) [2] was 80%.
In the case of “E71-98: complete synthetic E7 polypeptide (residues 1-98) of human papillomavirus type 16”, the “E7-specific CD8 T cell responses in PBMC” value [3] is reported as “did not induce detectable E7-specific CD8 T cell responses”.
For “polyriboinosinic:polyribocytidylic acid [pI:C]”, the “E7-specific CD8 T cell responses in CV tissue vs ivag PBS” value [4] is listed as “strongly enhanced” and the “numbers of E7-specific CD8 cells vs single dose of HspE7+poly IC” value (E7-specific CD8 cells) is listed as “did not elicit a significant increase”.

Reference: US20110110979A1, “METHOD AND VACCINE FOR […] SPECIFIC IMMUNE RESPONSES” (Universite De Lausanne, priority 2008, published 2011)
